Data from patent US20030064954A1, “Cationic amphiphilic 1,4-dihydropyridine derivatives useful for delivery of nucleotide containing compounds” (priority 2000, published 2003).

Tests used:
[1] = test system: CV-1P (African monkey green kidney fibroblasts cells); test: In vitro transfection of plasmid DNA, β-galactosidase activity per well; type: cell-based; settings: CVI-P
Summary of the method: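 CV-1P cells (20 000/well) given compound/DNA complexes at various charge ratios, prepared in 50 mM MES–50 mM HEPES–75 mM NaCl pH 7.2, 0.6 μg DNA/well, for 5 h at 37 °C, then 45 h in growth medium. Lysates assayed for β-galactosidase via oNPG hydrolysis at 405 nm against an E. coli enzyme standard; efficiency expressed as percent of Lipofectin.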

[2] = test system: D407 (human retinal pigment epithelial) cells; test: as above; type: cell-based; settings: D 407
Protocol: Transfer of plasmid DNA by various compounds was investigated by using CV-1P (African monkey green kidney fibroblasts cells) and D407 (human retinal pigment epithelial) cells.
The cells were cultured in Dulbecco's modified Eagle's medium (DMEM, Gibco), supplemented with 10% fetal bovine serum (FBS), penicillin/streptomycin (100 units/ml and 100 μg/ml respectively) and 2 mM L-glutamine for D 407 cell line. Cell cultures were maintained at 37° C. in a 7% CO2/air incubator. The cells were collected, counted and seeded in growth medium (100 μl) into 96-well culture plate, 20 000 cells per well. One day later the medium was replaced with fresh medium without serum (150 μl)
The complexes at different derivative/DNA charge ratios for transfection procedure were prepared just before use in 50 mM MES—50 mM HEPES—75 mM NaCl buffer, pH 7.2 in separate 96 well plates. One hour after changing the serum-free medium with 10% serum the complexes were added to the cells at 370C. Dose of DNA per well was 0.6 μg. After 5 h the complexes were removed, the cells were washed with PBS, and the normal growth medium was added. After 45 h of incubation at 37° C. the cells were lysed with 2% Triton X 100, twice deep frozen and the β-galactosidase activity in each well was determined spectrofotometrically with ELx800 automated microplate reader (Bio-Tex Instruments Inc., Winooski, Vt. USA) by monitoring the hydrolysis of o-nitrophenylgalactopyranoside (oNPG) at 405 nm. Purified β-galactosidase from E.coli was used to construct a standard curve and to calculate 9-galactosidase activity in the transfected cells. […] Transfection efficiencies are given as percentage in comparison to transfection efficiency of Lipofectin^R.

D 407 cells = test: Cytotoxicity of amphiphile/DNA complexes, percentage of survived cells; type: cell-based, human; set-up: concentration or dose not given beside the values
plasmid DNA = test: DNA condensation/complexation, EtBr displacement assay; type: binding
Summary of the method: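 Plasmid DNA (0.6 μg/well) was mixed with 0.002% EtBr in 20 mM HEPES–150 mM NaCl pH 7.4, then cationic liposomes were added at various +/− charge ratios.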

CVI-P cells = test: Cytotoxicity of amphiphile/DNA complexes, percentage of survived cells
[3] = amphiphile/DNA +/− charge ratio 0.5
[4] = amphiphile/DNA +/− charge ratio 1
[5] = amphiphile/DNA +/− charge ratio 2
[6] = amphiphile/DNA +/− charge ratio 4
[7] = amphiphile/DNA +/− charge ratio 8

| Structure (SMILES) | transfection efficiency [1, 3] | transfection efficiency [1, 4] | transfection efficiency [1, 5] | transfection efficiency [1, 6] | transfection efficiency [1, 7] | transfection efficiency [2, 4] | transfection efficiency [2, 5] | transfection efficiency [2, 6] | transfection efficiency [2, 7] | cytotoxicity as a percentage of survived cells (D 407 cells; [3]) | cytotoxicity as a percentage of survived cells (D 407 cells; [4]) | cytotoxicity as a percentage of survived cells (D 407 cells; [5]) | cytotoxicity as a percentage of survived cells (D 407 cells; [6]) | cytotoxicity as a percentage of survived cells (D 407 cells; [7]) | complexation, percentage of the maximum fluorescence signal when EtBr bound to DNA in the absence of an amphiphile (plasmid DNA; [3]) | complexation, percentage of the maximum fluorescence signal when EtBr bound to DNA in the absence of an amphiphile (plasmid DNA; [4]) | complexation, percentage of the maximum fluorescence signal when EtBr bound to DNA in the absence of an amphiphile (plasmid DNA; [5]) | complexation, percentage of the maximum fluorescence signal when EtBr bound to DNA in the absence of an amphiphile (plasmid DNA; [6]) | complexation, percentage of the maximum fluorescence signal when EtBr bound to DNA in the absence of an amphiphile (plasmid DNA; [7]) | melting point | further results |
| --- | --- | --- | --- | --- | --- | --- | --- | --- | --- | --- | --- | --- | --- | --- | --- | --- | --- | --- | --- | --- | --- |
| CCCCCCCCCCCCCCCCOC(=O)C1=C(C)NC(C)=C(C(=O)OCCCCCCCCCCCCCCCC)C1c1ccc[n+](C)c1.I.[I-] [VII, 3′,5′-Bis(hexadecyloxycarbonyl)-1′,4′-dihydro-1,2′,6′-trimethyl-3,4′-bipyridinium iodide] | 0,73 β-galactosidase units per well | 0,39 β-galactosidase units per well | 2,2 β-galactosidase units per well | 0,81 β-galactosidase units per well | 0,61 β-galactosidase units per well | 0,82 β-galactosidase units per well | 1,37 β-galactosidase units per well | 0,98 β-galactosidase units per well | 0,63 β-galactosidase units per well | 95,82% | 84,83% | 62,61% | 55,53% | 51,38% | 90,6% | 86,95% | 83,11% | 79,25% | 77,6% | 112 to 113 °C (dec.) | cytotoxicity as a percentage of survived cells (CVI-P cells; [3]): 102,34%; cytotoxicity as a percentage of survived cells (CVI-P cells; [4]): 97,03%; cytotoxicity as a percentage of survived cells (CVI-P cells; [5]): 103,62%; cytotoxicity as a percentage of survived cells (CVI-P cells; [6]): 99,84%; cytotoxicity as a percentage of survived cells (CVI-P cells; [7]): 88,71% |
| CCCCCCCCCCCCCCCC(=O)OCCOC(=O)C1=C(C)NC(C)=C(C(=O)OCCOC(=O)CCCCCCCCCCCCCCC)C1c1ccc[n+](C)c1.I.[I-] [I, 1′,4′-Dihydro-1,2′,6′-trimethyl-3′,5′-bis[(2-palmitoyloxyethoxy)carbonyl]-3,4′-bipyridinium iodide] | 0,26 β-galactosidase units per well | 7,72 β-galactosidase units per well | 2,89 β-galactosidase units per well | 0,73 β-galactosidase units per well | 0,78 β-galactosidase units per well | 20,04 β-galactosidase units per well | 5,72 β-galactosidase units per well | 0,89 β-galactosidase units per well | 0,88 β-galactosidase units per well | 90,43% | 80,92% | 51,14% | 31,39% | 26,92% | 89,4% | 87,2% | 84,4% | 78,3% | 73,35% | 105 to 107 °C | transfection efficiency [2, 3]: 0,83 β-galactosidase units per well; cytotoxicity as a percentage of survived cells (CVI-P cells; [3]): 94,43%; cytotoxicity as a percentage of survived cells (CVI-P cells; [4]): 94,83%; cytotoxicity as a percentage of survived cells (CVI-P cells; [5]): 91,92%; cytotoxicity as a percentage of survived cells (CVI-P cells; [6]): 78,43%; cytotoxicity as a percentage of survived cells (CVI-P cells; [7]): 70,75% |
